According to the NIST ThermoML archive (doi:10.1021/je500886a):

Experiment: mn = molality of the nth substance listed, in mol/kg
Details: 101 kPa, Liquid

O=C[C@@H](O)[C@@H](O)[C@H](O)[C@H](O)CO [D-mannose] + O
Details | mass density, 288.15 K [kg/m3] | mass density, 298.15 K [kg/m3] | mass density, 308.15 K [kg/m3] | mass density, 318.15 K [kg/m3] | viscosity, 288.15 K [mPa·s] | viscosity, 298.15 K [mPa·s] | viscosity, 308.15 K [mPa·s] | viscosity, 318.15 K [mPa·s]
m1 = 0.0501 | – | – | – | – | 1.168 | 0.912 | 0.735 | 0.608
m1 = 0.05278 | 1002.76 | 1000.64 | 997.63 | 993.78 | – | – | – | –
m1 = 0.07151 | 1004.03 | 1001.9 | 998.87 | 995.02 | 1.181 | 0.92 | 0.742 | 0.613
m1 = 0.09003 | 1005.28 | 1003.14 | 1000.09 | 996.23 | – | – | – | –
m1 = 0.09353 | – | – | – | – | 1.191 | 0.929 | 0.749 | –
m1 = 0.1065 | 1006.39 | 1004.23 | 1001.17 | 997.3 | – | – | – | –
m1 = 0.1123 | – | – | – | – | 1.201 | 0.936 | 0.756 | 0.624
m1 = 0.1277 | – | 1005.63 | 1002.56 | 998.67 | – | – | – | –
m1 = 0.1318 | – | – | – | – | 1.214 | 0.945 | 0.761 | 0.628
m1 = 0.1488 | – | – | 1003.92 | 1000.02 | – | – | – | –
m1 = 0.1515 | – | – | – | – | 1.225 | 0.952 | 0.766 | 0.634

OC[C@@H](O)[C@H](O)[C@H](O)[C@@H](O)CO [dulcitol] + O
Details | mass density, 288.15 K [kg/m3] | mass density, 298.15 K [kg/m3] | mass density, 308.15 K [kg/m3] | mass density, 318.15 K [kg/m3] | viscosity, 288.15 K [mPa·s] | viscosity, 298.15 K [mPa·s] | viscosity, 308.15 K [mPa·s] | viscosity, 318.15 K [mPa·s]
m1 = 0.0503 | – | – | – | – | 1.164 | 0.909 | 0.732 | 0.605
m1 = 0.05086 | 1002.35 | 1000.21 | 997.18 | 993.33 | – | – | – | –
m1 = 0.07104 | – | – | – | – | 1.175 | 0.916 | 0.737 | 0.609
m1 = 0.0735 | 1003.75 | 1001.6 | 998.55 | 994.68 | – | – | – | –
m1 = 0.08768 | 1004.62 | 1002.46 | 999.39 | 995.51 | – | – | – | –
m1 = 0.08872 | – | – | – | – | 1.185 | 0.921 | 0.743 | 0.612
m1 = 0.1066 | 1005.78 | 1003.6 | 1000.52 | 996.63 | – | – | – | –
m1 = 0.1091 | – | – | – | – | 1.196 | 0.928 | 0.747 | 0.616
m1 = 0.1279 | 1007.07 | 1004.88 | 1001.77 | 997.86 | – | – | – | –
m1 = 0.1283 | – | – | – | – | 1.204 | 0.935 | 0.752 | 0.619
m1 = 0.1457 | 1008.14 | 1005.94 | 1002.81 | 998.89 | – | – | – | –
m1 = 0.1468 | – | – | – | – | 1.215 | 0.941 | 0.757 | 0.622

[Br-].[NH4+] [ammonium bromide] + O
Details | mass density, 288.15 K [kg/m3] | mass density, 298.15 K [kg/m3] | mass density, 308.15 K [kg/m3] | mass density, 318.15 K [kg/m3] | viscosity, 288.15 K [mPa·s] | viscosity, 298.15 K [mPa·s] | viscosity, 308.15 K [mPa·s] | viscosity, 318.15 K [mPa·s]
m1 = 0.05 | 1001.05 | 998.76 | 995.75 | 992.91 | 1.132 | 0.888 | 0.719 | 0.597
m1 = 0.5 | 1024.05 | 1021.81 | 1019.06 | 1015.68 | 1.096 | 0.87 | 0.71 | 0.598
m1 = 1 | 1049.01 | 1046.88 | 1043.31 | 1040.33 | 1.057 | 0.853 | 0.697 | 0.6
m1 = 2 | 1095.99 | 1092.56 | 1088.78 | 1085.68 | 1.002 | 0.827 | 0.678 | 0.602

O=C[C@H](O)[C@@H](O)[C@@H](O)[C@H](O)CO [(+)-galactose] + O
Details | mass density [kg/m3] | viscosity [mPa·s]
288.15 K, m1 = 0.05001 | – | 1.166
288.15 K, m1 = 0.05096 | 1002.7 | –
288.15 K, m1 = 0.06903 | 1003.95 | –
288.15 K, m1 = 0.07068 | – | 1.178
288.15 K, m1 = 0.09042 | 1005.42 | –
288.15 K, m1 = 0.09059 | – | 1.189
288.15 K, m1 = 0.1099 | – | 1.199
288.15 K, m1 = 0.1289 | – | 1.208
288.15 K, m1 = 0.1513 | – | 1.22
288.15 K, m1 = 0.1552 | 1009.81 | –
298.15 K, m1 = 0.05001 | – | 0.91
298.15 K, m1 = 0.05096 | 1000.58 | –
298.15 K, m1 = 0.06903 | 1001.82 | –
298.15 K, m1 = 0.07068 | – | 0.919
298.15 K, m1 = 0.09042 | 1003.27 | –
298.15 K, m1 = 0.09059 | – | 0.927
298.15 K, m1 = 0.1099 | – | 0.935
298.15 K, m1 = 0.1102 | 1004.61 | –
298.15 K, m1 = 0.1289 | – | 0.941
298.15 K, m1 = 0.1322 | 1006.08 | –
298.15 K, m1 = 0.1513 | – | 0.951
308.15 K, m1 = 0.05001 | – | 0.734
308.15 K, m1 = 0.05096 | 997.56 | –
308.15 K, m1 = 0.06903 | 998.79 | –
308.15 K, m1 = 0.07068 | – | 0.741
308.15 K, m1 = 0.09042 | 1000.22 | –
308.15 K, m1 = 0.09059 | – | 0.747
308.15 K, m1 = 0.1099 | – | 0.753
308.15 K, m1 = 0.1102 | 1001.54 | –
308.15 K, m1 = 0.1289 | – | 0.758
308.15 K, m1 = 0.1322 | 1003 | –
308.15 K, m1 = 0.1513 | – | 0.766
308.15 K, m1 = 0.1552 | 1004.51 | –
318.15 K, m1 = 0.05001 | – | 0.607
318.15 K, m1 = 0.05096 | 993.7 | –
318.15 K, m1 = 0.06903 | 994.91 | –
318.15 K, m1 = 0.07068 | – | 0.612
318.15 K, m1 = 0.09042 | 996.33 | –
318.15 K, m1 = 0.09059 | – | 0.617
318.15 K, m1 = 0.1099 | – | 0.621
318.15 K, m1 = 0.1102 | 997.64 | –
318.15 K, m1 = 0.1289 | – | 0.625
318.15 K, m1 = 0.1322 | 999.07 | –
318.15 K, m1 = 0.1513 | – | 0.63
318.15 K, m1 = 0.1552 | 1000.57 | –
